Assay results reported in patent publication US20080108669A1, “Use 541” (AstraZeneca AB, priority 2006, published 2008).
pIC50: −log10 of the molar value. One block for each compound: values may come before it.

What was measured:
[1] = target: T1, human Trk A kinase (Homo sapiens, UniProt P04629); test: Trk A kinase assay (Alphascreen); assay type: biochemical; conditions: human Trk A intracellular domain, 70 μM ATP, 20 minutes, room temperature; read-out: IC50 (Trk inhibitory activity)
T1 construct: HIS; made in house; host or cells: SF9 insect cells
Protocol: Trk A kinase activity was measured for its ability to phosphorylate synthetic tyrosine residues within a generic polypeptide substrate using an Amplified Luminescent Proximity Assay (Alphascreen) technology (PerkinElmer, 549 Albany Street, Boston, Mass.).
To measure Trk A kinase activity, the intracellular domain of a HIS-tagged human Trk A kinase (amino acids 442-796 of Trk A, Swiss-Prot Primary Accession Number P04629) was expressed in SF9 cells and purified using standard nickel column chromatography. After incubation of the kinase with a biotinylated substrate and adenosine triphosphate (ATP) for 20 minutes at room temperature, the kinase reaction was stopped by the addition of 30 mM ethylenediaminetetraacetic acid (EDTA). The reaction was performed in 384 well microtitre plates and the reaction products were detected with the addition of strepavidin coated Donor Beads and phosphotyrosine-specific antibodies coated Acceptor Beads using the EnVision Multilabel Plate Reader after an overnight incubation at room temperature.

[2] = system: carrageenan-induced monoarthritis in rat; test: Monoarthritis induced by carrageenan, Paw Print setup (hindpaw weight distribution, "Walking pain"); assay type: in vivo; conditions: for hindpaw weight distribution (difference in percent weight-bearing between the two hind paws), mean ±SEM: four hours after administration (five hours after carrageenan), vehicle group 39.0±2.1%, n=8
Protocol: One single injection of carrageenan directly into the rat knee joint produces symptoms peaking at 3 to 4 hours and lasting for one to two days, and which are sensitive to treatment by most anti-nociceptive drugs (Tonussi and Ferreira, Pain 1992, 48, 421-427).
Under isoflurane anesthesia, 50 μL of carrageenan (7.5 mg/mL) was injected into the left tibio-tarsal (ankle) joint from the dorsal side. This injection causes a localized inflammation increasing to a maximum between 4 h to 8 h after induction, after which it gradually decreases, and the animals display decreased weight bearing on and guarding of the limb.
The Paw Print walkway consists of a 100×10 cm path with an access point at one short end and an exit at the other, and the rats are trained to make a swift, continuous passage. The walkway has a glass floor where light is projected into one long edge via fiber optics. Projecting the light in this fashion allows for virtually complete internal reflection within the glass floor. Only where an object touches the glass, such as the placement of a rat paw, light is scattered at the point of contact and produces an illuminated print (Betts, Duckworth, Eng. Med. 1978, 7, 223-228) that is recorded by a wide-angle camera placed under the walkway. The light intensity (range 0-255) of the illumination depends on the degree of contact against the floor and increases with the applied pressure (Clarke, Physiology & Behavior 1995, 58, 415-419). The Paw Print setup is a modified version of the CatWalk introduced by Hamers, Lankhorst, van Laar, Veldhuis, Gispen (J. Neurotrauma 2001, 18, 187-201), and has a computerized gait detection algorithm extracting several parameters pertaining to the rat's gait pattern and weight-bearing.
The animals were trained to cross the walkway twice, one and two days before induction of monoarthritis. Recordings were subsequently made on the day of testing, immediately before, and three and five hours after carrageenan injection, corresponding to two and four hours after per oral administration of test compound. The following parameters were used for analysis:
Weight-bearing per paw=The total sum of maximum light intensities for all pixels in the print of one paw is multiplied by the number of pixels of the print area. A paw placement consists of a number of pixels with light intensity above a certain threshold value (80 in this study). During the time course of one paw placement, a maximum value of light intensity is recorded for each pixel.
Based on the weight-bearing results, the Paw Print algorithm chooses the median print per paw in one walkway crossing. The median weight-bearing of each paw constitutes a percentage of the sum of all four paws' median weight-bearing results. The difference in percent weight-bearing between the two hind paws is shown (“Walking pain”).
The test compounds were administered 60 min after induction of monoarthritis.
Results were analysed using 1-Way ANOVA followed by Newman-Keuls for comparison between treatment groups for data obtained at each time-point after administration. The level of significance was set at p<0.05 (SigmaStat® 2.03).

T1 sequence (P04629 442-796): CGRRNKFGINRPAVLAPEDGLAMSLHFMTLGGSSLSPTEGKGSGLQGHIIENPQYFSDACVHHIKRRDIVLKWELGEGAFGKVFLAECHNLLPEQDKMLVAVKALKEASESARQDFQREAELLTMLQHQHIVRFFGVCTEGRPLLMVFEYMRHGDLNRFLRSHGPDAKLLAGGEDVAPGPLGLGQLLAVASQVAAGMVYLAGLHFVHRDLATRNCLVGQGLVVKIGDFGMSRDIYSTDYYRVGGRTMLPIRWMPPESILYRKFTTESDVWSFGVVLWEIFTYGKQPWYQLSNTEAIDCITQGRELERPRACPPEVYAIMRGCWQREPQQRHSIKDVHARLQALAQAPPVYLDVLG

pIC50 [1]: 6.21
SMILES: C[C@H](Nc1nc(Nc2cc(C3CC3)[nH]n2)c(Cl)cc1Cl)c1ccc(F)cc1 [(S)-3,5-Dichloro-N^2-(5-cyclopropyl-1H-pyrazol-3-yl)-N^6-(1-(4-fluoro-phenyl)ethyl)pyridine-2,6-diamine]

SMILES: CC(C)Oc1cc(Nc2nc(N[C@@H](C)c3ccc(F)cn3)c(C#N)cc2F)n[nH]1 [(S)-5-Fluoro-2-(1-(5-fluoropyridin-2-yl)ethylamino)-6-(5-isopropoxy-1H-pyrazol-3-ylamino)nicotinonitrile]
hindpaw weight distribution (difference in percent weight-bearing between the two hind paws), mean ±SEM ([2]; 50 μmol/kg per oral): 24.6±4.3%
hindpaw weight distribution (difference in percent weight-bearing between the two hind paws), mean ±SEM ([2]; 100 μmol/kg per oral): 27.6±3.3%
hindpaw weight distribution (difference in percent weight-bearing between the two hind paws), mean ±SEM ([2]; 200 μmol/kg per oral): 18.4±3.2%
effect on hindpaw weight distribution vs vehicle (p<0.05) ([2]; four hours after per oral administration, all doses tested: 50, 100 and 200 μmol/kg): significantly reduced
effect on hindpaw weight distribution vs vehicle (p<0.05) ([2]; two hours after per oral administration, 50, 100 and 200 μmol/kg): not at two hours

pIC50 [1]: 7.20
SMILES: C[C@H](Nc1ccc([N+](=O)[O-])c(Nc2cc(C3CC3)[nH]n2)n1)c1ccc(F)cc1 [(S)-N^2-(5-Cyclopropyl-1H-pyrazol-3-yl)-N^6-(1-(4-fluorophenyl)ethyl)-3-nitropyridine-2,6-diamine]

pIC50 [1]: 6.96
SMILES: C[C@H](Nc1nc(Nc2cc(C3CC3)[nH]n2)c(F)cc1CNC(=O)C1CCC(=O)N1)c1ccc(F)cc1 (stereo partly drawn) [N-((6-(5-Cyclopropyl-1H-pyrazol-3-ylamino)-5-fluoro-2-((S)-1-(4-fluorophenyl)ethylamino)pyridin-3-yl)methyl)-5-oxopyrrolidine-2-carboxamide]
